Measured values taken from ChEMBL document CHEMBL1255495, “Experimental conditions that enhance potency of an antibacterial oligo-acyl-lysyl” (2010).
Converted amounts (≈) assume the structure as drawn. The source made the active and inactive calls. No cut-off for these calls is given here.

Legend:
[1] = system: Escherichia coli; assay: Antibacterial activity against Escherichia coli O157:H7 ATCC 43894 after 24 hrs at 48 degC by microdilution method; type: functional; details: O157:H7 ATCC 43894, 24 h
[2] = system: Listeria monocytogenes; assay: Antibacterial activity against Listeria monocytogenes ATCC 19115 after 24 hrs by microdilution method in presence of 1030 mM NaCl; type: functional; details: ATCC 19115, 24 h
[3] = system: Listeria monocytogenes; assay: Antibacterial activity against Listeria monocytogenes ATCC 19115 after 24 hrs by microdilution method in presence of 515 mM NaCl; type: functional; details: ATCC 19115, 24 h
[4] = system: Listeria monocytogenes; assay: Antibacterial activity against Listeria monocytogenes ATCC 19115 after 24 hrs by microdilution method in presence of 160 mM MgCl2; type: functional; details: ATCC 19115, 24 h
[5] = system: Staphylococcus aureus; assay: Antibacterial against methicillin-resistant Staphylococcus aureus isolate 15903 at pH 8.5 after 24 hrs at 48 degC by microdilution method in presence of 85 mM NaCl; type: functional; details: isolate 15903, 24 h
[6] = system: Staphylococcus aureus; assay: Antibacterial activity against methicillin-resistant Staphylococcus aureus isolate 15903 after 24 hrs at 48 degC by microdilution method; type: functional; details: isolate 15903, 24 h
[7] = system: Listeria monocytogenes; assay: Antibacterial activity against Listeria monocytogenes ATCC 19115 after 24 hrs at 37 degC by microdilution method; type: functional; details: ATCC 19115, 24 h
[8] = system: Escherichia coli; assay: Antibacterial activity against Escherichia coli O157:H7 ATCC 43894 after 24 hrs by microdilution method in presence of 160 mM MgCl2; type: functional; details: O157:H7 ATCC 43894, 24 h
[9] = system: Staphylococcus aureus; assay: Antibacterial activity against methicillin-resistant Staphylococcus aureus isolate 15903 after 24 hrs by microdilution method in presence of 260 mM NaCl; type: functional; details: isolate 15903, 24 h
[10] = system: Staphylococcus aureus; assay: Antibacterial activity against Staphylococcus aureus ATCC 29213 at pH 7 after 24 hrs by microdilution method; type: functional; details: ATCC 29213, 24 h
[11] = system: Lipid bilayer; assay: Binding affinity to phospholipid membrane model at pH 7 by surface plasmon resonance in presence of 140 mM NaCl
[12] = system: Staphylococcus aureus; assay: Ratio of MIC for methicillin-resistant Staphylococcus aureus isolate 15903 in presence of 85 mM NaCl to MIC for methicillin-resistant Staphylococcus aureus isolate 15903 at pH 8.5 after 24 hrs at 48 degC in presence of 85 mM NaCl; type: functional
[13] = system: Escherichia coli; assay: Ratio of MIC for Escherichia coli O157:H7 ATCC 43894 in presence of 85 mM NaClsto MIC for Escherichia coli O157:H7 ATCC 43894 at pH 8.5 after 24 hrs at 48 degC in presence of 85 mM NaCl; type: functional
[14] = system: Staphylococcus aureus; assay: Antibacterial activity against methicillin-resistant Staphylococcus aureus isolate 15903 after 24 hrs by microdilution method in presence of 170 mM NaCl; type: functional; details: isolate 15903, 24 h
[15] = system: Listeria monocytogenes; assay: Antibacterial activity against Listeria monocytogenes ATCC 19115 after 24 hrs by microdilution method in presence of 80 mM MgCl2; type: functional; details: ATCC 19115, 24 h
[16] = system: Escherichia coli; assay: Antibacterial activity against Escherichia coli O157:H7 ATCC 43894 after 72 hrs at 4 degC by microdilution method; type: functional; details: O157:H7 ATCC 43894, 72 h
[17] = system: Staphylococcus aureus; assay: Antibacterial activity against methicillin-resistant Staphylococcus aureus isolate 15903 at pH 7 after 24 hrs by microdilution method; type: functional; details: isolate 15903, 24 h
[18] = system: Listeria monocytogenes; assay: Antibacterial activity against Listeria monocytogenes ATCC 19115 at pH 5.5 after 24 hrs by microdilution method; type: functional; details: ATCC 19115, 24 h
[19] = system: Escherichia coli; assay: Antibacterial activity against Escherichia coli O157:H7 ATCC 43894 after 24 hrs by microdilution method in presence of 1030 mM NaCl; type: functional; details: O157:H7 ATCC 43894, 24 h
[20] = system: Escherichia coli; assay: Antibacterial activity against Escherichia coli O157:H7 ATCC 43894 at pH 7 after 24 hrs by microdilution method; type: functional; details: O157:H7 ATCC 43894, 24 h
[21] = system: Listeria monocytogenes; assay: Antibacterial activity against Listeria monocytogenes ATCC 19115 at pH 3.5 after 24 hrs by microdilution method; type: functional; details: ATCC 19115, 24 h
[22] = system: Listeria monocytogenes; assay: Antibacterial activity against Listeria monocytogenes ATCC 19115 after 24 hrs by microdilution method in presence of 40 mM MgCl2; type: functional; details: ATCC 19115, 24 h
[23] = system: Escherichia coli; assay: Antibacterial against Escherichia coli O157:H7 ATCC 43894 at pH 8.5 after 24 hrs at 48 degC by microdilution method in presence of 85 mM NaCl; type: functional; details: O157:H7 ATCC 43894, 24 h
[24] = system: Listeria monocytogenes; assay: Antibacterial activity against Listeria monocytogenes ATCC 19115 after 24 hrs by microdilution method in presence of 20 mM MgCl2; type: functional; details: ATCC 19115, 24 h
[25] = system: Staphylococcus aureus; assay: Antibacterial activity against methicillin-resistant Staphylococcus aureus isolate 15903 after 24 hrs by microdilution method in presence of 515 mM NaCl; type: functional; details: isolate 15903, 24 h
[26] = system: Listeria monocytogenes; assay: Antibacterial activity against Listeria monocytogenes ATCC 19115 at pH 8.5 after 24 hrs by microdilution method; type: functional; details: ATCC 19115, 24 h
[27] = system: Escherichia coli; assay: Antibacterial activity against Escherichia coli O157:H7 ATCC 43894 after 24 hrs at 37 degC by microdilution method; type: functional; details: O157:H7 ATCC 43894, 24 h
[28] = system: Listeria monocytogenes; assay: Antibacterial activity against Listeria monocytogenes ATCC 19115 after 24 hrs by microdilution method in presence of 170 mM NaCl; type: functional; details: ATCC 19115, 24 h
[29] = system: Escherichia coli; assay: Antibacterial activity against Escherichia coli O157:H7 ATCC 43894 assessed as reduction in bacterial population at 0.01 to 10 uM up to 15 mins by time-kill assay; type: functional

Compound `CCCCCCCCCCCC(=O)N[C@@H](CCCCN)C(=O)NCCCCCCCC(=O)N[C@@H](CCCCN)C(=O)NCCCCCCCC(=O)N[C@@H](CCCCN)C(=O)NCCCCCCCC(=O)N[C@@H](CCCCN)C(=O)NCCCCCCCC(=O)N[C@@H](CCCCN)C(=O)NCCCCCCCC(=O)N[C@@H](CCCCN)C(=O)NCCCCCCCC(=O)N[C@@H](CCCCN)C(=O)NCCCCCCCC(=O)N[C@@H](CCCCN)C(N)=O` has an MIC [1] of 1.6 µM (≈ 3.54 µg/mL), an MIC [2] of 12.5 µM and an MIC [3] of 6.3 µM. For the same compound, the MIC [4] was 25 µM, the MIC [5] was 0.8 µM and the MIC [6] was 3.1 µM (≈ 6.86 µg/mL). For the same compound, the MIC [7] was 1.6 µM (≈ 3.54 µg/mL), the MIC [8] was 50 µM and the MIC [9] was over 50 µM. The MIC [10] was 50 µM (≈ 111 µg/mL), the Activity [11] was “inactive” and the Ratio [12] was 16. It also gave a Ratio [13] of 16, an MIC [14] of 50 µM and an MIC [15] of 12.5 µM. It also gave an MIC [16] of 6.3 µM (≈ 13.9 µg/mL), an MIC [17] of 12.5 µM (≈ 27.7 µg/mL) and an MIC [18] of 3.1 µM (≈ 6.86 µg/mL). The MIC [19] was 12.5 µM, the MIC [20] was 3.1 µM (≈ 6.86 µg/mL) and the MIC [21] was over 50 µM. For the same compound, the MIC [22] was 6.3 µM, the MIC [23] was 0.2 µM and the MIC [24] was 3.1 µM. It also gave an MIC [25] of over 50 µM, an MIC [26] of 0.8 µM (≈ 1.77 µg/mL) and an MIC [27] of 3.1 µM (≈ 6.86 µg/mL). For the same compound, the MIC [28] was 3.1 µM and the “inhibition (INH)” value [29] was 99%.
